Reference: US20060229233A1, “Compositions and methods for treating neurological disorders” (ID Biomedical Corporation, priority 2004, published 2006)
Like-named read-outs stand apart in the source and are kept apart here. Marks after values point to notes of the source that are not given here.

Assays:
J20 APP transgenic mice = format: in vivo; conditions: for occurrence of EAE: immunization in CFA + pertussis toxin
Protocol: Induction and clinical evaluation of EAE in APP+ mice. (B6D2)F1 or (B6XSJL)F1 APP+ (WT or B-cell deficient μMT) and non-tg littermates were immunized in the hind footpads with 100 μg MOG(35-55), PLP 139-151 or 100 μg β-amyloid peptide (1-40) in CFA. Immediately thereafter and again 48 hours later mice received an i.p. injection containing 150 ng of pertussis toxin in 0.2 ml PBS. Animals were monitored for symptoms of EAE beginning 7 days after immunization and scored as follows: 0, no disease; 1, tail paralysis; 2, hind limb weakness; 3, hind limb paralysis; 4, hind limb plus forelimb paralysis; and 5, moribund.
Nasal vaccination. Glatiramer acetate: 25 μg was given on days 1, 2, 4 and 5 the first week followed by a weekly boost for six weeks. IVX-908: 1 μg/mouse was given on days 1 and 5 the first week followed by a weekly boost for six weeks. BSA+IVX-908: 25 μg of BSA plus 1 ug IVX-908 were given on days 1 and 5 the first week, and 25 μg of BSA alone was given on days 2 and 4, followed by six weekly boosts of the combination of BSA+IVX-908. GA+IVX-908: 25 μg of GA plus 1 μg IVX-908 were given on days 1 and 5 the first week, and 25 μg of GA alone was given on days 2 and 4, followed by six weekly boosts of the combination of GA+IVX-908.

Aβ = test: Anti-Aβ antibody level (IgG, OD) in immunized J20 APP transgenic mice; format: in vivo
Protocol: Antibody levels were measured against Aβ in animals immunized with MOG or PLP to determine if there was cross reactivity with Aβ and Aβ antibody titers as compared to those from animals immunized with Aβ. […] To definitively establish that antibodies were not playing a role, 16-month-old J20 mice bred to μMT B-cell deficient mice were immunized with MOG 35-55 in CFA followed by administration of Pertussis toxin.

Aβ40 and Aβ42 [1] = test: Total brain Aβ by sandwich ELISA, J20 APP transgenic mice; format: in vivo; conditions: for Total brain Aβ: subcutaneous immunization in CFA + pertussis toxin
Protocol: FIG. 1: Effect of subcutaneous immunization on total Aβ levels in the brain. To quantify amyloid burden, the right hemisphere was extracted in 5.0 M guanidinium-chloride (pH 8) for 3 hours at room temperature. Dilutions were used to measure levels of Aβ40 and Aβ42 by sandwich enzyme-linked immunosorbent assays (ELISA).
Amyloid quantification. To quantify amyloid burden, the right hemisphere was extracted in 5.0 M guanidinium-chloride (pH 8) for 3 hours at room temperature. Dilutions were used to measure levels of insoluble (amyloid-associated) […] and Aβ42 by sandwich enzyme-linked immunosorbent assays (ELISA). […] Brains were frozen in the presence of OCT paraformaldehyde, cut to 14-μm longitudinal sections used for immunohistological staining and amyloid fibril quantification. […] Images (magnification ×20) from these sections were collected from a 3CCD color video camera and analyzed with appropriate software (NIH; Imaging Research). The amount of amyloid fibril was expressed as a percentage per mm^2 hippocampal region as measured by the software.

Aβ fibrils = format: in vivo, mice; conditions: for % Area of thioflavin positive Aβ plaques (hippocampus): subcutaneous immunization in CFA + pertussis toxin
Protocol: Amyloid quantification. To quantify amyloid burden, the right hemisphere was extracted in 5.0 M guanidinium-chloride (pH 8) for 3 hours at room temperature. Dilutions were used to measure levels of insoluble (amyloid-associated) […] and Aβ42 by sandwich enzyme-linked immunosorbent assays (ELISA). To measure Aβ fibrils, the left hemisphere was fixed in 4% […] O/N followed by 4.5% sucrose for 4 hours then 20% Sucrose for O/N at 4° C. Brains were frozen in the presence of OCT paraformaldehyde, cut to 14-μm longitudinal sections used for immunohistological staining and amyloid fibril quantification. Well-defined hippocampal regions (Bregma −1.34), were selected for quantification of the amount of amyloid fibril in plaques using thioflavin-S staining. Images (magnification ×20) from these sections were collected from a 3CCD color video camera and analyzed with appropriate software (NIH; Imaging Research). The amount of amyloid fibril was expressed as a percentage per mm^2 hippocampal region as measured by the software.

[2] = test system: hippocampus of APP tg mice; test: Immunohistochemistry of hippocampus in immunized animals; format: in vivo; conditions: for activated microglia (CD11b) in hippocampus: immunization in CFA, APP tg mice
Protocol: Immunohistology. The staining was performed utilizing the following markers: T-cells (CD3; BD Biosciences:553057), microglia/macrophages (CD11b; Serotec:MCA74G), (C-MFR; Cymbus Biotech:21080096), IFN-γ (Pharmingen: 559065), IL-10 (Pharmingen:559063) and TGF-β (RD:AB-20-PB). Anti-amyloid antibodies (R1282) were a gift of Dennis Seloke. Brain sections were further subject to Haematoxylin staining. Sections were evaluated in a blinded manner, and controls included use of isotype-matched mAbs as previously described. For each treatment the quantification was done from the hippocampal region of three different brain sections (the same region, Bregma −1.34, that were used for ThS staining). The results are expressed as the mean of the labeled cells for each marker.

APP non-transgenic mice = test: Microglial activation in APP non-transgenic mice; format: in vivo; conditions: parenteral with CFA/PT or nasal
Aβ40 and Aβ42 [3] = test: Total brain Aβ by sandwich ELISA, J20 APP transgenic mice; format: in vivo
microglial phagocytosis = conditions: Cha, A. et al. (2001) GLIA 33(1):87-95; cited from earlier work
[4] = nasal immunization, J20 APP transgenic mice
[5] = subcutaneous (footpad) immunization in CFA + pertussis toxin, J20 APP transgenic mice, scale 0-5
[6] = level of OD at titer of 1:500 IgG, subcutaneous immunization in CFA + pertussis toxin, J20 APP transgenic mice
[7] = immunization in CFA + pertussis toxin, APP transgenic mice
[8] = μMT B-cell deficient J20 APP+ mice
[9] = μMT B-cell deficient APP+ mice, CFA + Pertussis toxin
[10] = Subcutaneous (CFA/P.T.), B-deficient mice

In the case of glatiramer acetate [GA], the “occurrence of EAE” value (J20 APP transgenic mice) is reported as “no clinical EAE”, the EAE score (J20 APP transgenic mice; [4]) is reported as 0 and the EAE score (J20 APP transgenic mice; [5]) is reported as 0. The “Anti-Aβ Antibody” value (Aβ; level of OD 450 at titer of 1:50 IgG, nasal immunization, J20 APP transgenic mice) was 0 OD 450, the “Anti-Aβ Antibody” value (Aβ; [6]) was 0 OD and the “reduction of total brain Aβ (ELISA) / total amyloid load vs. control” value (Aβ40 and Aβ42 [1]; [7]) was 70%. The “Total brain Aβ” value (Aβ40 and Aβ42 [1]; J20 APP transgenic mice) was 39.1 ± 12.8 ^c ng/ml, the “reduction of staining for Aβ fibril in the hippocampus (thioflavin S) vs. controls” value (Aβ fibrils; [7]) was 92% and the “effect on Aβ fibrils / fibrillar Aβ staining” value (Aβ fibrils; mouse, in vivo) was “did not affect Aβ fibrils”. For the same substance, the “% Area of thioflavin S positive Aβ plaques (hippocampus)” value (Aβ fibrils; [4]) was 2.06 ± 0.8%, the “% Area of thioflavin positive Aβ plaques (hippocampus)” value (Aβ fibrils; J20 APP transgenic mice) was 0.26 ± 0.1 ^d % and the “CD3, number of cells per hippocampal region” value (from here on “CD3 … per hippocampal region”) ([2]; NASAL) was 35 ± 19 cells per hippocampal region. The “CD11b, number of cells per hippocampal region” value (shortened to “CD11b … per hippocampal region”) ([2]; NASAL) was 136 ± 12 cells per hippocampal region, the “IFN-γ, number of cells per hippocampal region” value (from here on “IFN-γ … per hippocampal region”) ([2]; NASAL) was 53 ± 3 ^i cells per hippocampal region and the “IL-10, number of cells per hippocampal region” value ([2]; NASAL) was 75 ± 7 cells per hippocampal region. For the same substance, the “M-CSFR, number of cells per hippocampal region” value (“M-CSFR … per hippocampal region” for short) ([2]; NASAL) was 30 ± 9 cells per hippocampal region, the “TGF-β, number of cells per hippocampal region” value (from here on “TGF-β … per hippocampal region”) ([2]; NASAL) was 77 ± 10 cells per hippocampal region and the “CD3 … per hippocampal region” value ([2]; Subcutaneous (CFA/P.T.)) was 61 ± 12 ^i cells per hippocampal region. The “CD11b … per hippocampal region” value ([2]; Subcutaneous (CFA/P.T.)) was 227 ± 61 ^i cells per hippocampal region, the “IFN-γ … per hippocampal region” value ([2]; Subcutaneous (CFA/P.T.)) was 85 ± 11 ^iv cells per hippocampal region and the “IL-10, number of cells per hippocampal region” value ([2]; Subcutaneous (CFA/P.T.)) was 59 ± 7 cells per hippocampal region. For the same substance, the “M-CSFR … per hippocampal region” value ([2]; Subcutaneous (CFA/P.T.)) was 57 ± 8 cells per hippocampal region, the “TGF-β … per hippocampal region” value ([2]; Subcutaneous (CFA/P.T.)) was 31 ± 7 cells per hippocampal region and the “microglial activation in APP non-transgenic mice” value (APP non-transgenic mice) was “No microglial activation”. The “effect on total Aβ levels in the brain” value (Aβ40 and Aβ42 [3]; nasal administration) was “slight reduction” and the “Total brain Aβ” value (Aβ40 and Aβ42 [3]; [4]) was 97.6 ± 15.5 ng/mL.

For “human β-amyloid peptide (Aβ amino acids 1-40)”, the “occurrence of EAE” value (J20 APP transgenic mice) was “no EAE was observed”, the EAE score (J20 APP transgenic mice; [5]) was 0 and the “Anti-Aβ Antibody” value (Aβ; [6]) was 0.75 OD. For the same substance, the “Total brain Aβ” value (Aβ40 and Aβ42 [1]; J20 APP transgenic mice) was 60.8 ± 16 ^a ng/ml, the “% Area of thioflavin positive Aβ plaques (hippocampus)” value (Aβ fibrils; J20 APP transgenic mice) was 0.83 ± 0.3 ^a % and the “CD3 … per hippocampal region” value ([2]; Subcutaneous (CFA/P.T.)) was 10 ± 2 cells per hippocampal region. For the same substance, the “CD11b … per hippocampal region” value ([2]; Subcutaneous (CFA/P.T.)) was 106 ± 27 cells per hippocampal region, the “IFN-γ … per hippocampal region” value ([2]; Subcutaneous (CFA/P.T.)) was 9 ± 2 cells per hippocampal region and the “IL-10, number of cells per hippocampal region” value ([2]; Subcutaneous (CFA/P.T.)) was 44 ± 5 cells per hippocampal region. The “M-CSFR … per hippocampal region” value ([2]; Subcutaneous (CFA/P.T.)) was 34 ± 11 cells per hippocampal region, the “TGF-β … per hippocampal region” value ([2]; Subcutaneous (CFA/P.T.)) was 41 ± 5 cells per hippocampal region and the “activated microglia (CD11b) in hippocampus” value (“activated microglia (CD11b)” for short) [2] was 106±27 cells/hippocampus region.

For bovine serum albumin [BSA/CFA], the “occurrence of EAE” value (J20 APP transgenic mice) was “no EAE was observed” and the “activated microglia (CD11b)” value [2] was 76±17 cells/hippocampus region.

In the case of “myelin oligodendrocyte glycoprotein (MOG) peptide (amino acids 35-55) (MEVGWYRSPFSRVVHLYRNGK; UniProt Q61885 63-83, looked up, fragment)”, the EAE score (J20 APP transgenic mice; [5]) is reported as 2.5 ± 0.8, the EAE score (J20 APP transgenic mice; subcutaneous immunization in CFA + pertussis toxin, μMT B-cell deficient J20 APP+ mice) is reported as 2.7 ± 0.4 and the “anti-Aβ antibodies” value (Aβ; MOG immunization) is reported as “not detected”. The “Anti-Aβ Antibody” value (Aβ; [6]) was 0 OD, the “Anti-Aβ Antibody” value (Aβ; level of OD at titer of 1:500 IgG, subcutaneous, μMT B-cell deficient J20 APP+ mice) was 0 OD and the “reduction of total brain Aβ (ELISA) / total amyloid load vs. control” value (Aβ40 and Aβ42 [1]; [7]) was 94%. For the same substance, the “reduction of total brain Aβ (ELISA) compared to Aβ 1-40 immunized mice” value (Aβ40 and Aβ42 [1]; [7]) was 86%, the “Total brain Aβ” value (Aβ40 and Aβ42 [1]; J20 APP transgenic mice) was 8.4 ± 2.1 ^b ng/ml and the “Total brain Aβ” value (Aβ40 and Aβ42 [1]; [8]) was 11.4 ± 2.7 ^b ng/ml. The “reduction in amyloid compared to control by ELISA for total brain amyloid” value (Aβ40 and Aβ42 [1]; [9]) was 90%, the “reduction of staining for Aβ fibril in the hippocampus (thioflavin S) compared to mice immunized with Aβ 1-40” value (Aβ fibrils; [7]) was 73% and the “reduction of staining for Aβ fibril in the hippocampus (thioflavin S) vs. controls” value (Aβ fibrils; [7]) was 92%. For the same substance, the “% Area of thioflavin positive Aβ plaques (hippocampus)” value (Aβ fibrils; J20 APP transgenic mice) was 0.22 ± 0.1 ^b %, the “% Area of thioflavin positive Aβ plaques (hippocampus)” value (Aβ fibrils; [8]) was 0.27 ± 0.04 ^b % and the “reduction in amyloid compared to control by ThS staining” value (Aβ fibrils; [9]) was 90%. The “CD3 … per hippocampal region” value ([2]; Subcutaneous (CFA/P.T.)) was 142 ± 19 ^iv cells per hippocampal region, the “CD11b … per hippocampal region” value ([2]; Subcutaneous (CFA/P.T.)) was 349 ± 34.3 ^iv cells per hippocampal region and the “IFN-γ … per hippocampal region” value ([2]; Subcutaneous (CFA/P.T.)) was 109 ± 7 ^iv cells per hippocampal region. For the same substance, the “IL-10, number of cells per hippocampal region” value ([2]; Subcutaneous (CFA/P.T.)) was 21 ± 9 ^ii cells per hippocampal region, the “M-CSFR … per hippocampal region” value ([2]; Subcutaneous (CFA/P.T.)) was 79 ± 5 ^i cells per hippocampal region and the “TGF-β … per hippocampal region” value ([2]; Subcutaneous (CFA/P.T.)) was 20 ± 5 ^iii cells per hippocampal region. The “CD3 … per hippocampal region” value [2, 10] was 195 ± 12 ^iv cells per hippocampal region, the “CD11b … per hippocampal region” value [2, 10] was 462 ± 23 ^iv cells per hippocampal region and the “IFN-γ … per hippocampal region” value [2, 10] was 119 ± 18 ^iv cells per hippocampal region. The “IL-10, number of cells per hippocampal region” value [2, 10] was 25 ± 5 ^i cells per hippocampal region, the “M-CSFR … per hippocampal region” value [2, 10] was 77 ± 6 ^i cells per hippocampal region and the “TGF-β … per hippocampal region” value [2, 10] was 22 ± 8 ^ii cells per hippocampal region. The “activated microglia (CD11b)” value [2] was 349±34.3 cells/hippocampus region.

In the case of INF-gamma: Th1-type cytokine INF-gamma, the “augmentation of microglial phagocytosis” value (microglial phagocytosis) is listed as 75 % above untreated.
